Consider 20 compounds from patent US20170007610A1, “NOVEL HETEROBICYCLIC COMPOUNDS AS KAPPA OPIOID AGONISTS” (priority 2014, published 2017).

Like-named read-outs stand apart in the source and are kept apart here.

For data set [1], the target named is T1, kappa opioid receptor (Mus musculus, UniProt P33534).
T1 construct: from tissue; host or cells: mouse vas deferens (male Swiss Albino mice)
The experiment in a line: Ex-vivo KOR agonistic activity, electrically stimulated mouse vas deferens (MVD) model. How it is done: a) Ex-Vivo KOR Agonistic Activity Testing, Using Electrically Stimulated Mouse Vas Deferens (MVD) Model:
Ex-vivo, the kappa opioid receptor agonistic activity of test compounds were tested on the electrically stimulated mouse vas deferens (MVD) preparations (Henderson et al., Br. J. Pharmacol., 46, 764-766, 1972; Portoghese et al., Life Sci. 36, 801-805, 1985) and IC50 were determined. In general, vas deferentia were taken from male Swiss Albino mice (30-40 g) and suspended in 8 ml organ baths, at 31° C., containing modified Krebs-Henseleit solution, without magnesium sulphate. Each vas deferens was equilibrated for 45 min at 2.6 mN tension and then stimulated at supramaximal voltage with five 1 ms pulses, at a frequency of 0.1 Hz. Concentration-response curves were determined by cumulative dosing. Inhibitory Concentration, 50% (IC50) values were determined by Sigmoidal dose-response (variable slope) equation, using Prizm v 6.01. The kappa opioid receptor specificity was determined by rightward shift in concentration-response curves in presence of 1 nM norbinaltorphimine (norBNI), a selective kappa opioid receptor antagonist.

For data set [2], the target named is T2, kappa opioid receptor (Homo sapiens, UniProt P41145).
T2 construct: grown in complete Ham's F-12 medium
T2 sequence (P41145 whole entry): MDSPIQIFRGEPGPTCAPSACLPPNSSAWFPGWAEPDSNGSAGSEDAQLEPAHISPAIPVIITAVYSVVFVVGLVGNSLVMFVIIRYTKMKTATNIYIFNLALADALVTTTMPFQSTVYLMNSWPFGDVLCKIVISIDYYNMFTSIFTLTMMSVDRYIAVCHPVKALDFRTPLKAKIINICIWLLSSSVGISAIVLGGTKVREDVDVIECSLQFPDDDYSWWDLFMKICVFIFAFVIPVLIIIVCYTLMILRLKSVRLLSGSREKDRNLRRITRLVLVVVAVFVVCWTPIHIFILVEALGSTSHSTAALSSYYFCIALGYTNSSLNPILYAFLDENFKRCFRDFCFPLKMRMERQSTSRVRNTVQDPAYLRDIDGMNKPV
In words: Invitro KOR agonistic activity, cAMP based functional assay. It counts as cell-based.

Data set [3] has as its system ICR mice. The experiment in a line: Acetic acid-induced writhing model. It counts as in vivo. Conditions: acetic acid induced pain model, oral or i.v. administration, writhes for 15 min; for ED50: Mus musculus, 0.25 h, read-out: In-vivo ED50. The procedure:
(§1) All the animal experiments were carried out in ICR mice, bred in-house. Animals were housed in groups of 6 animals per cage, for a week, in order to habituate them to vivarium conditions (25±4° C., 60-65% relative humidity, 12:12 h light: dark cycle, with lights on at 7.30 am). All the animal experiments were carried out according to the internationally valid guidelines following approval by the ‘Zydus Research Center animal ethical committee’.
Following oral or i.v. administration of test compounds, mice are rested for 5 min before i.p. injection with 10 ml/kg of 0.6% v/v acetic acid in normal saline. […] A writhe is defined as a constriction of the abdominal area, often with extension of the hind legs. Percentage maximum possible effect (MPE) was calculated as below:
% MPE=100−[(No. of writhes in treated mice/No. of writhes in vehicle treated mice)]×100
ED50 dose is determined using GraphPad Prism.
(In writhing tests, fewer writhes than in controls are read as antinociception.)

In data set [4] the test system is ICR mice. The experiment in a line: Assessment of CNS effects (spontaneous locomotion, sedation, catalepsy), threshold dose. It is filed as in vivo. Conditions: lowest dose which shows pharmacodynamic effect (locomotion, sedation, catalepsy), oral or i.v. How it is done: as §1
Assessment of CNS Effects of Test Compounds
Test compounds were dissolved in normal saline injected by oral or i.v., routes in ICR mice tail vein. […] The dose is scaled down or up if pharmacodynamic effect is present or absent respectively.

The mark [5] stands for this setting: electrically stimulated mouse vas deferens preparation, cumulative dosing, read-out: Ex-vivo IC50.
Setting [6] is: cAMP direct ELISA, forskolin 20 μM, agonist 20 minutes, read-out: In-vitro EC50.

T1 sequence (P33534 whole entry): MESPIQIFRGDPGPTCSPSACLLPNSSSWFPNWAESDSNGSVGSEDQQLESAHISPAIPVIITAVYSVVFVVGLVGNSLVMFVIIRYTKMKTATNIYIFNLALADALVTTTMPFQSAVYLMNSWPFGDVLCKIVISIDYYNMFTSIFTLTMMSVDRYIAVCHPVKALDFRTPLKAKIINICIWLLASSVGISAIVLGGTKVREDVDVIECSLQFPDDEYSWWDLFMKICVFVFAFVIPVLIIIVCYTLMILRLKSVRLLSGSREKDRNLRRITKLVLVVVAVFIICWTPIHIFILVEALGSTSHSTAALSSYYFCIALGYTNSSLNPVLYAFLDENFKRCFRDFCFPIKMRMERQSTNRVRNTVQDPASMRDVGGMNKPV

Consider `CN(C(=O)COc1ccc(NS(C)(=O)=O)c2cccnc12)[C@H](CN1CC[C@H](O)C1)c1ccccc1` [Compound 6, N-((S)-2-((S)-3-hydroxypyrrolidin-1-yl)-1-phenylethyl)-N-methyl-2-((5-methylsulfonamido)quinolin-8-yloxy)acetamide], for which the IC50 (as a rule, the point on the concentration scale where inhibition reaches its midpoint) at kappa opioid receptor [1] is 349 nM. The EC50 (in general, the concentration that produces a half-maximal response) at kappa opioid receptor [2] came out at 0.94 nM. The ED50 (commonly the dose at which the effect has come halfway, by size or by number of responders) with ICR mice [3] turned out to be 1.1 mg/kg. Further, the “CNS TD” value in the data set on ICR mice [4] stood at 30 mg/kg.

Take `CN(C(=O)COc1ccc(NS(C)(=O)=O)c2c1CCCN2)[C@H](CN1CC[C@H](O)C1)c1ccccc1` [Compound 15, N-((S)-2-((S)-3-hydroxypyrrolidin-1-yl)-1-phenylethyl)-N-methyl-2-((8-(methylsulfonamido)-1,2,3,4-tetrahydroquinolin-5-yl)oxy)acetamide]: the IC50 at kappa opioid receptor [1] turned out to be 0.9 nM. The compound further displayed an EC50 on kappa opioid receptor [2] of 0.003 nM. For the same compound, in the data set with ICR mice [3], the ED50 came to 0.92 mg/kg. In the data set on ICR mice [4], the “CNS TD” value is 10 mg/kg.

In turn, `CN(C(=O)COc1ccc2c(c1)CCCN2S(C)(=O)=O)[C@H](CN1CC[C@H](O)C1)c1ccccc1` [Compound 20, N-((S)-2-((S)-3-hydroxypyrrolidin-1-yl)-1-phenylethyl)-N-methyl-2-((1-(methylsulfonyl)-1,2,3,4-tetrahydroquinolin-6-yl)oxy)acetamide] showed an IC50 at kappa opioid receptor [1] of 1740 nM. The compound further had an EC50 at kappa opioid receptor [2] of 2.12 nM. The median effective dose (ED50) in the data set with ICR mice [3] was determined as 1.8 mg/kg. The “CNS TD” value in the data set on ICR mice [4] is 30 mg/kg.

The compound `CN1CCCc2c(OCC(=O)N(C)[C@H](CN3CC[C@H](O)C3)c3ccccc3)ccc(NS(C)(=O)=O)c21` [Compound 22, N-((S)-2-((S)-3-hydroxypyrrolidin-1-yl)-1-phenylethyl)-N-methyl-2-((1-methyl-8-(methylsulfonamido)-1,2,3,4-tetrahydroquinolin-5-yl)oxy)acetamide] had an IC50 on kappa opioid receptor [1] of 8.1 nM. Further, the concentration for a half-maximal effect (EC50) on kappa opioid receptor [2] was 0.008 nM. For the same compound, in the data set with ICR mice [3], the ED50 was found to be 2.5 mg/kg. In addition, the “CNS TD” value in the data set with ICR mice [4] is recorded as 60 mg/kg.

As for `CN(C(=O)COc1ccc(NS(=O)(=O)N(C)C)c2c1CCCN2)[C@H](CN1CC[C@H](O)C1)c1ccccc1` [Compound 32, 2-((8-((N,N-dimethylsulfamoyl)amino)-1,2,3,4-tetrahydroquinolin-5-yl)oxy)-N-((S)-2-((S)-3-hydroxypyrrolidin-1-yl)-1-phenylethyl)-N-methylacetamide], at kappa opioid receptor [1], the IC50 is 0.49 nM. On kappa opioid receptor [2], the EC50 is 0.013 nM. Also, in the data set on ICR mice [3], the ED50 was found to be 4.7 mg/kg. Also, the “CNS TD” value in the data set with ICR mice [4] amounted to 100 mg/kg.

As for `CN(C(=O)COc1ccc(NS(C)(=O)=O)c2ncccc12)[C@H](CN1CC[C@H](O)C1)c1cccc(N)c1` [Compound 43, N-((S)-1-(3-aminophenyl)-2-((S)-3-hydroxypyrrolidin-1-yl)ethyl)-N-methyl-2-((8-(methylsulfonamido)quinolin-5-yl)oxy) acetamide], the half-maximal inhibitory concentration (IC50) on kappa opioid receptor [1] came to 1.6 nM. Moreover, the EC50 at kappa opioid receptor [2] stood at 0.006 nM. Also, the ED50 in the data set with ICR mice [3] worked out at 2.1 mg/kg. In the data set with ICR mice [4], the “CNS TD” value is recorded as 30 mg/kg.

At kappa opioid receptor [1], `CN(C(=O)COc1ccc(NS(C)(=O)=O)c2ncccc12)[C@H](CN1CC[C@H](O)C1)c1cccc(NS(C)(=O)=O)c1` [Compound 44] came in with an IC50 of 5.4 nM. At kappa opioid receptor [2], this compound gave an EC50 of 0.036 nM. In the data set with ICR mice [3], the ED50 came out at 2.3 mg/kg. Moreover, in the data set with ICR mice [4], the “CNS TD” value was 10 mg/kg.

On to `CN(C(=O)COc1ccc(NS(C)(=O)=O)c2ncccc12)[C@H](CN1CC[C@H](O)C1)c1cccc(O)c1` [Compound 48, N-((S)-1-(3-hydroxyphenyl)-2-((S)-3-hydroxypyrrolidin-1-yl)ethyl)-N-methyl-2-((8-(methylsulfonamido)quinolin-5-yl)oxy) acetamide], for which the IC50 at kappa opioid receptor [1] amounted to 1.3 nM. The 50% effective concentration (EC50) at kappa opioid receptor [2] stood at 0.021 nM. Moreover, in the data set on ICR mice [3], the ED50 amounted to 3.1 mg/kg. For the same compound, in the data set with ICR mice [4], the “CNS TD” value is recorded as 30 mg/kg.

On kappa opioid receptor [1], `COc1cccc([C@@H](CN2CC[C@H](O)C2)N(C)C(=O)COc2ccc(NS(C)(=O)=O)c3ncccc23)c1` [Compound 49, N-((S)-2-((S)-3-hydroxypyrrolidin-1-yl)-1-(3-methoxyphenyl)ethyl)-N-methyl-2-((8-(methylsulfonamido)quinolin-5-yl)oxy) acetamide] displayed an IC50 of 1.9 nM. This compound displayed a half-maximal effective concentration (EC50) at kappa opioid receptor [2] of 0.032 nM.

In turn, `CCOC(=O)COc1cccc([C@@H](CN2CC[C@H](O)C2)N(C)C(=O)COc2ccc(NS(C)(=O)=O)c3ncccc23)c1` [Compound 50] yielded an IC50 at kappa opioid receptor [1] of 221 nM. This compound also displayed an EC50 on kappa opioid receptor [2] of 0.001 nM.

In the case of `CN(C(=O)COc1ccc(NS(C)(=O)=O)c2ncccc12)[C@H](CN1CC[C@H](O)C1)c1cccc(OCC(=O)O)c1` [Compound 51], on kappa opioid receptor [1] (setting [5]), the IC50 is 16 nM. Also, at kappa opioid receptor [2] (setting [6]), the EC50 was found to be 0.11 nM.

For `CN(C(=O)COc1ccc(NS(C)(=O)=O)c2ncccc12)[C@H](CN1CC[C@H](O)C1)c1cccc(F)c1` [Compound 52, N-((S)-1-(3-fluorophenyl)-2-((S)-3-hydroxypyrrolidin-1-yl)ethyl)-N-methyl-2-((8-(methylsulfonamido)quinolin-5-yl)oxy) acetamide], the IC50 on kappa opioid receptor [1] worked out at 21 nM. On kappa opioid receptor [2], the EC50 worked out at 0.18 nM.

As to `CN(C(=O)COc1ccc(NS(C)(=O)=O)c2ncccc12)[C@H](CN1CC[C@H](O)C1)c1cccc(C(F)(F)F)c1` [Compound 53, N-((S)-2-((S)-3-hydroxypyrrolidin-1-yl)-1-(3-(trifluoromethyl)phenyl)ethyl)-N-methyl-2-((8-(methylsulfonamido)quinolin-5-yl)oxy) acetamide], the IC50 at kappa opioid receptor [1] is 73 nM. Moreover, the response on kappa opioid receptor [2] was half-maximal at 0.68 nM (EC50).

As for `Cc1cccc([C@@H](CN2CC[C@H](O)C2)N(C)C(=O)COc2ccc(NS(C)(=O)=O)c3ncccc23)c1` [Compound 54, N-((S)-2-((S)-3-hydroxypyrrolidin-1-yl)-1-(3-methyl)ethyl)-N-methyl-2-((8-(methylsulfonamido)quinolin-5-yl)oxy)acetamide], the IC50 on kappa opioid receptor [1] came out at 14 nM. This compound showed an EC50 on kappa opioid receptor [2] of 0.098 nM.

For `CN(C(=O)COc1ccc2ccoc2c1)[C@H](CN1CC[C@H](O)C1)c1cccc([N+](=O)[O-])c1` [Compound 55, 2-(benzofuran-6-yloxy)-N-((S)-2-((S)-3-hydroxypyrrolidin-1-yl)-1-(3-nitrophenyl)ethyl)-N-methylacetamide], the IC50 on kappa opioid receptor [1] was 307 nM. The compound also came in with an EC50 at kappa opioid receptor [2] of 1.92 nM.

On to `CN(C(=O)COc1ccc2ccoc2c1)[C@H](CN1CC[C@H](O)C1)c1cccc(NS(C)(=O)=O)c1` [Compound 56, 2-(benzofuran-6-yloxy)-N-((S)-2-((S)-3-hydroxypyrrolidin-1-yl)-1-(3-(methylsulfonamido)phenyl)ethyl)-N-methylacetamide], for which, on kappa opioid receptor [1], the half-inhibitory concentration (IC50) came out at 88 nM. For the same compound, the EC50 at kappa opioid receptor [2] was 1.11 nM.

In turn, `COC(=O)Nc1cccc([C@@H](CN2CC[C@H](O)C2)N(C)C(=O)COc2ccc3c(c2)OCO3)c1` [Compound 58, Methyl-(3-((S)-1-(2-(benzo[d][1,3]dioxol-5-yloxy)-N-methylacetamido)-2-((S)-3-hydroxypyrrolidin-1-yl)-ethyl)phenyl)carbamate] yielded an IC50 at kappa opioid receptor [1] of 9.8 nM. This compound had an EC50 on kappa opioid receptor [2] of 0.098 nM.

Turning to “N-((S)-2-((S)-3-hydroxypyrrolidin-1-yl)-1-phenylethyl)- N-methyl-2-((8-(pyrrolidine-1-sulfonamido)-1,2,3,4- tetrahydroquinolin-5-yloxy)acetamide [Compound 39]”, on kappa opioid receptor [1] (setting [5]), the IC50 came to 0.95 nM. For the same compound, the EC50 on kappa opioid receptor [2] (setting [6]) was determined as 0.088 nM.

Take “N-((S)-2-((S)-3-hydroxypyrrolidin-1-yl)-1-phenylethyl)- N-methyl-2-((8-sulfonamido)-1,2,3,4-tetrahydroquinolin- 5-yloxy)acetamide [Compound 37]”: at kappa opioid receptor [1] (setting [5]), the IC50 is 0.3 nM. The EC50 on kappa opioid receptor [2] (setting [6]) amounted to 0.013 nM. The “In-vivo ED50” value in the data set on ICR mice [3] amounted to 6.2 mg/kg.

Take “N-((S)-2-((S)-3-hydroxypyrrolidin-1-yl)-1-phenylethyl)- N-methyl-2-((8-sulfonamido)quinolin-5-yloxy)acetamide [Compound 36]”: the IC50 at kappa opioid receptor [1] (setting [5]) is 7.8 nM. On kappa opioid receptor [2] (setting [6]), the EC50 stood at 1.12 nM.
